The values below come from ChEMBL document CHEMBL1201862, “PubChem BioAssay data set” (2004).

The source made the active and inactive calls. Where only a bound is given, the exact number is not on record here.

Assay [1] has as its target Large T antigen (Simian virus 40, UniProt P03070). Type of assay: functional, Betapolyomavirus macacae.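 Note: Confirmatory-stage PubChem screen for compounds that inhibit SV40 T antigen.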
The target of assay [2] is 72 kDa type IV collagenase (Homo sapiens, UniProt P08253). Description: Dose Response validation of uHTS RPN11 inhibitor hits using a MMP-2 Fluorescence assay. The class given is functional.
Assay [3] has as its target 26S proteasome non-ATPase regulatory subunit 14 (Homo sapiens, UniProt O00487). Description: inhibition of proteasome subunit RPN11 – biochemical, fluorescence polarization, uHTS hits, confirmation (AID 602368). Type of assay: functional. For orientation: In fluorescence polarisation assays a small probe gives low polarisation when free and higher when bound to something large.

In assay [4] the target is Prothrombin (Bos taurus, UniProt P00735). Kind of assay: thrombin protease inhibitors – biochemical, fluorescence polarization, uHTS hits, dose response (AID 602369). Type of assay: functional.
The target in assay [5] is Tyrosine-protein phosphatase non-receptor type 5 (Homo sapiens, UniProt P54829). Kind of assay: PTPN5 enzyme inhibition – biochemical, fluorescence intensity, uHTS hits, confirmation (AID 602372). Type of assay: functional. The note with it: read-out: IC50_Mean.
Assay [6] addresses Cytochrome P450 3A4 (Homo sapiens, UniProt P08684).
Assay [7] has as its target Tyrosine-protein phosphatase non-receptor type 11 (Homo sapiens, UniProt Q06124). Description: PTPN11 enzyme inhibitors – biochemical, selectivity assay for STEP inhibitor project, dose response (AID 602367). To be noted: read-out: IC50_Mean. The class given is functional.
Assay [8] has as its target Dual specificity protein phosphatase 3 (Homo sapiens, UniProt P51452). Description: VHR phosphatase inhibition, dose response, selectivity assay for STEP inhibitor project, biochemical (AID 602374). The note with it: read-out: IC50_Mean. Type of assay: functional.
Assay [9] in a line: loss of viability in HepG2 cells – cell-based, CellTiter-Glo, cherry-picked, cytotoxicity control for Shn3 inhibitor project, dose response (AID 624134). Type of assay: functional. (In general: Cellular ATP, detected with luciferase, serves as a proxy for viable cell number.)
Assay [10] can be described thus: non-specific 3'UTR reporter inhibition in Clone20-Shn3RL – cell-based, Renilla luciferase, cherry-picked, counter-screen for Shn3 inhibitor project, dose response (AID 624133). The class given is functional.
A short description of assay [11]: reduction of Shn3 3'UTR-driven luciferase in osteoblasts – cell-based, Clone20 osteoblasts, firefly luciferase, cherry-picked, dose response (AID 624132).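 Note: firefly luciferase luminescence from reporter carrying the Shn3 3'UTR in osteoblasts.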 Type of assay: functional.
The target of assay [12] is Photoreceptor-specific nuclear receptor (Homo sapiens, UniProt Q9Y5X4). Type of assay: functional, cell-based.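 Note: CHO-S cells with Gal4-NCOR and VP16-NR2E3 two-hybrid luciferase reporter.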
A short description of assay [13]: blockers of CRF-binding protein–CRF-R2 complex – cell-based, uHTS hits, 384-well, dose response (AID 651639). Type of assay: functional, Homo sapiens. The note with it: read-out: IC50_Mean.
Assay [14] deals with T1, Corticotropin-releasing factor receptor 2/Corticotropin-releasing factor-binding protein (Homo sapiens, UniProt P24387+Q13324).
T1 sequence (Q13324 whole entry): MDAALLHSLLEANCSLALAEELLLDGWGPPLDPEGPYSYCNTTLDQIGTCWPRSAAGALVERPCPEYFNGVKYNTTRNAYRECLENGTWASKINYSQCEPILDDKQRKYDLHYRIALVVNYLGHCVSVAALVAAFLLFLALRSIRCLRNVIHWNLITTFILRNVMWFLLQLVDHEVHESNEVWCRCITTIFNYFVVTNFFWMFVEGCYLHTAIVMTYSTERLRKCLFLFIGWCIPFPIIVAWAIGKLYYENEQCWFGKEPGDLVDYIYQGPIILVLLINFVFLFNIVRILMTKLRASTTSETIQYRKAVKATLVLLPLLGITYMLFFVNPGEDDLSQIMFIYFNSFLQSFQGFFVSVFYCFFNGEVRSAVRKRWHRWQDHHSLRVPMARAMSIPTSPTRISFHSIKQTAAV
T1 sequence (P24387 whole entry): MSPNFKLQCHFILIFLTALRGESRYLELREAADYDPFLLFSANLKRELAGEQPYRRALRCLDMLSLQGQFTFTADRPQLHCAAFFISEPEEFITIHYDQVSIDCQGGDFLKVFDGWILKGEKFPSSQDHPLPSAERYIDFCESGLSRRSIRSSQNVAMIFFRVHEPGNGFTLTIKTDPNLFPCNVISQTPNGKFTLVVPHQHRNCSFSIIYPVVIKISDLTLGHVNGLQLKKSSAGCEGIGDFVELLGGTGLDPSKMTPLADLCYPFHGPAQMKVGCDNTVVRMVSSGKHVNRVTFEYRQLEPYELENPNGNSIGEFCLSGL
Description: Dose Response confirmation of uHTS hits for small molecule antagonists of the CRF-binding protein and CRF-R2 receptor complex. The note with it: read-out: IC50_Mean. The class given is functional.

Assay [15] deals with T1, Corticotropin-releasing factor receptor 2/Corticotropin-releasing factor-binding protein. Description: activators of CRF receptor 2 with binding protein – uHTS hits, confirmation (AID 602473). Type of assay: functional. The note with it: read-out: EC50_Mean.
For assay [16], the target named is Potassium voltage-gated channel subfamily KQT member 2 (Rattus norvegicus, UniProt O88943). Description: blockers of KCNQ2 channel current – cell-based, automated electrophysiology, set II, rat KCNQ2, dose response (AID 588637). The class given is functional.
Assay [17] concerns the target T2, Cysteine protease ATG4B (Homo sapiens, UniProt Q9Y4P1).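 Note: Fluorescence-based dose-response confirmation assay measuring inhibition of ATG4B activity.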
T2 sequence (Q9Y4P1 whole entry): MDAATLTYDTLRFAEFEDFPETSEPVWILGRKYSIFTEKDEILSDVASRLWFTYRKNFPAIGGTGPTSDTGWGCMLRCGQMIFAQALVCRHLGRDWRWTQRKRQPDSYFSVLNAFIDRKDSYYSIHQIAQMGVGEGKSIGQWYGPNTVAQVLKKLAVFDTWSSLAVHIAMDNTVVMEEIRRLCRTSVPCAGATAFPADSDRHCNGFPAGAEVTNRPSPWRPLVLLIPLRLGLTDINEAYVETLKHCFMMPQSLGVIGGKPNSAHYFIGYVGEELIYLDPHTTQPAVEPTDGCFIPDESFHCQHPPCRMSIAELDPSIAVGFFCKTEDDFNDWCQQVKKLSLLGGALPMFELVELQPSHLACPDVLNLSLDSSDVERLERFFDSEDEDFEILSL
Type of assay: functional.

A short description of assay [18]: fluconazole-exposed Candida albicans growth modulators – fluorescence, retest, confirmation (AID 2467). The class given is functional, cell-based.
Assay [19] deals with Phospholipase A2 (Homo sapiens, UniProt P04054). The class given is functional.
Assay [20] in a line: NIH-3T3 fibroblast cytotoxicity, dose response, cytotoxicity control, cell-based, fluorescence, Alamar Blue, secondary assay (AID 2327).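 Note: NIH-3T3 mouse fibroblasts cultured with fluconazole at 8 µg/mL.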 Type of assay: functional.
Assay [21] has as its system Streptococcus sp. 'group A'. Description: Streptococcus pyogenes SK(-)GAS viability under kanamycin – luminescence, BacTiterGlo, confirmation, counter-screen for streptokinase expression inhibitor project, dose response (AID 1900). The class given is functional, organism-based.
The subject of assay [22] is Streptococcus. Kind of assay: GAS UMAA2166 growth inhibition – luminescence, BacTiterGlo, counter-screen for streptokinase expression inhibitor project, dose response (AID 1915).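 Note: potency for reduction of bacterial viability or growth.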 Type of assay: functional, organism-based. On the technique in general: Counterscreens check selectivity or assay interference.
Assay [23] addresses T3, Streptokinase A (Streptococcus pyogenes serotype M1, UniProt P10520).
T3 sequence (P10520 whole entry): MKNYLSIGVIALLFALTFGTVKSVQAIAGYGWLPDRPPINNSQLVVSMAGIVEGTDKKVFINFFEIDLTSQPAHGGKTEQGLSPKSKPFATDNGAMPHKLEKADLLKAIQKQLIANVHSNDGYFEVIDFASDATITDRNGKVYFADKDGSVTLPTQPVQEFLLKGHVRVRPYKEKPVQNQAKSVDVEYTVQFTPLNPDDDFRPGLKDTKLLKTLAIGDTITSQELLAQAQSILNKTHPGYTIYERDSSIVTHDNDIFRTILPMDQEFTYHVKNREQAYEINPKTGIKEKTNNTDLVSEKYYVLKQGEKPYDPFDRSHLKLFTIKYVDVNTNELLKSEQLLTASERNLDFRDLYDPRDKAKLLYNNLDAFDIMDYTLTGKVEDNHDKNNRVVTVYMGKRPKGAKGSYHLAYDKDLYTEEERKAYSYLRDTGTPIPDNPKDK
Kind of assay: viability-normalized secreted streptokinase activity reduction – plasminogen activation absorbance, OD405, dose response (AID 1914).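 Note: secreted streptokinase activity via plasminogen activation per viability signal from cell pellet.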 The class given is functional, Streptococcus pyogenes M1 GAS.

Assay [24] is described as follows: NIH3T3 cell viability loss – ATP luminescence, mouse fibroblasts, counter-screen, dose response (AID 2010).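 Note: cells exposed to compound for about 90 hours before reading.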 The class given is functional, cell-based.
Assay [25] is described as follows: Trypanosoma cruzi growth suppression in host cells – NIH3T3 host cells, beta-gal luminescence, confirmation (AID 2044).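 Note: intracellular parasites grown in NIH/3T3 mouse fibroblasts as host cells; luminescent beta-galactosidase reporter signal from transgenic T. cruzi replicating inside host cells; inhibitors lower the luminescence signal.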 The class given is functional, cell-based.
In assay [26] the test system is HEK293. Kind of assay: EBV LMP1 TES2 canonical NF-kB signalling blockers – cell-based, HEK293, luciferase, cherry-pick, dose response (AID 588343). Type of assay: functional. The note with it: Homo sapiens.
Assay [27] addresses T4, Latent membrane protein 1 (Human herpesvirus 4 (strain B95-8), UniProt P03230).
T4 sequence (P03230 whole entry): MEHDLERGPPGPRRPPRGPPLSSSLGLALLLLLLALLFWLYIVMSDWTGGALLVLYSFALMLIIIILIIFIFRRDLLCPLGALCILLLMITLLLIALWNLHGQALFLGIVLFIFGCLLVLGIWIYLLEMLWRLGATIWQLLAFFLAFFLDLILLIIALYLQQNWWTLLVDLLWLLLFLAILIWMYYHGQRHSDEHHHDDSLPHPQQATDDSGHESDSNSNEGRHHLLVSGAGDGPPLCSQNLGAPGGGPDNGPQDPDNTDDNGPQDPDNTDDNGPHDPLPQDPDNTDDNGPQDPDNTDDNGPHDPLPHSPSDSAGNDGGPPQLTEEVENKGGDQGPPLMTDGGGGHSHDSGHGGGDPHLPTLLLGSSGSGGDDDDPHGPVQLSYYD
Description: LMP1 TES1 pathway selectivity over dsRED control – imaging, HEK293T, dual-color eGFP/dsRED, cherry-picks, selectivity assay for LMP1 NF-kB inhibitor project, dose response (AID 588398). Type of assay: functional, cell-based.

The nature of assay [28]: alpha-synuclein stem-loop luciferase translation blockers – H4 neuroglioma cells, luminescence, confirmation (AID 1988). The class given is functional, cell-based.
Assay [29] in a line: Luminescence Cell-Based Dose Response HTS to Identify Inhibitors of 5'UTR Stem-Loop Driven Prion Protein mRNA Translation in H4 Neuroglioblastoma Cells. [Related pubchem assays: 1827 (Project Summary), 1813 (Primary HTS)]. The class given is functional.

Chain of Tyrosine-protein phosphatase non-receptor type 5 (P54829 whole entry): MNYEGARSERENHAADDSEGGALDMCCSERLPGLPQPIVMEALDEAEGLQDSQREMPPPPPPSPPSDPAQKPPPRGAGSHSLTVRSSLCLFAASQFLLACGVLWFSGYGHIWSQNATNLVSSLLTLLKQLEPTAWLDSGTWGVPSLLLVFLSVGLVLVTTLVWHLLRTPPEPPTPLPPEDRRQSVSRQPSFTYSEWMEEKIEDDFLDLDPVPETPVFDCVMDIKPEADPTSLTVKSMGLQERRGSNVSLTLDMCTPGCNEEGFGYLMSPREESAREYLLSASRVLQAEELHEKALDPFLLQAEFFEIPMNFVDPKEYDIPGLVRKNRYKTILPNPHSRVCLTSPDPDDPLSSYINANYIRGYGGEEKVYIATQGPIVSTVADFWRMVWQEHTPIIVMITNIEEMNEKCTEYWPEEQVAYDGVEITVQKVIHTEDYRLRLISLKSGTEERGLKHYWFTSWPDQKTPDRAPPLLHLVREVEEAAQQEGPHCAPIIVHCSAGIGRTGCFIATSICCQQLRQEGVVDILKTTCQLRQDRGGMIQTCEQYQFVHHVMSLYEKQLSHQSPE
Chain of Dual specificity protein phosphatase 3 (P51452 whole entry): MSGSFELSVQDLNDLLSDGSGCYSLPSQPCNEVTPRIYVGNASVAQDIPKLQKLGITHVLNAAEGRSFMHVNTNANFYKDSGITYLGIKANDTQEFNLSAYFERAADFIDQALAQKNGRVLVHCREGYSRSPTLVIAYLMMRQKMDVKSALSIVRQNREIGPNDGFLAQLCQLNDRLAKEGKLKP
Chain of Photoreceptor-specific nuclear receptor (Q9Y5X4 whole entry, the tested form may be a part): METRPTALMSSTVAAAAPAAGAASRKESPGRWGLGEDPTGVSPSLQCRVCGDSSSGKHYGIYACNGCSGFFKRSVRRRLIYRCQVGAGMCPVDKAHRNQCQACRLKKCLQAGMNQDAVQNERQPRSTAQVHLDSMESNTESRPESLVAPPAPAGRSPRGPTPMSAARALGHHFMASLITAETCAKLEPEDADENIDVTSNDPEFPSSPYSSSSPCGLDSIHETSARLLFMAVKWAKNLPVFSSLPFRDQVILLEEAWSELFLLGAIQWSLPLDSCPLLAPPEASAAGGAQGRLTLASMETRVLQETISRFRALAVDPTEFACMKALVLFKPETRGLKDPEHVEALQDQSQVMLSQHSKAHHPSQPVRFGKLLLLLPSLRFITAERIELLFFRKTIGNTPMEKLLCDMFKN
Chain of Tyrosine-protein phosphatase non-receptor type 11 (Q06124 whole entry): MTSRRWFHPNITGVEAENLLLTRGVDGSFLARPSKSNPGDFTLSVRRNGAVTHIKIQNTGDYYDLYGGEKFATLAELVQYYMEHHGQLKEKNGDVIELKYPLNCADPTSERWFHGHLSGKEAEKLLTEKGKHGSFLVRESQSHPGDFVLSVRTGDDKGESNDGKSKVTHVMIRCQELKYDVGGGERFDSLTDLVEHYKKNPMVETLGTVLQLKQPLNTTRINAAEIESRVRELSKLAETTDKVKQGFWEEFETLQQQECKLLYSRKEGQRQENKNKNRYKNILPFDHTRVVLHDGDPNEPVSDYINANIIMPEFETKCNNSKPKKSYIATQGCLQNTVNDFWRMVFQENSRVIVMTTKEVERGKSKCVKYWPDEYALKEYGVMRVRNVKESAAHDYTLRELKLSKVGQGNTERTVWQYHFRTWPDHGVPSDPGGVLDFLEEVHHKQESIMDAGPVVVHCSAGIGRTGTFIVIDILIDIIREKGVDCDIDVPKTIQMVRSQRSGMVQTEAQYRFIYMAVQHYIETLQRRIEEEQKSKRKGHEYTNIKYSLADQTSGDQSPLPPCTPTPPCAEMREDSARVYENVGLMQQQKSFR
Chain of 72 kDa type IV collagenase (P08253 whole entry): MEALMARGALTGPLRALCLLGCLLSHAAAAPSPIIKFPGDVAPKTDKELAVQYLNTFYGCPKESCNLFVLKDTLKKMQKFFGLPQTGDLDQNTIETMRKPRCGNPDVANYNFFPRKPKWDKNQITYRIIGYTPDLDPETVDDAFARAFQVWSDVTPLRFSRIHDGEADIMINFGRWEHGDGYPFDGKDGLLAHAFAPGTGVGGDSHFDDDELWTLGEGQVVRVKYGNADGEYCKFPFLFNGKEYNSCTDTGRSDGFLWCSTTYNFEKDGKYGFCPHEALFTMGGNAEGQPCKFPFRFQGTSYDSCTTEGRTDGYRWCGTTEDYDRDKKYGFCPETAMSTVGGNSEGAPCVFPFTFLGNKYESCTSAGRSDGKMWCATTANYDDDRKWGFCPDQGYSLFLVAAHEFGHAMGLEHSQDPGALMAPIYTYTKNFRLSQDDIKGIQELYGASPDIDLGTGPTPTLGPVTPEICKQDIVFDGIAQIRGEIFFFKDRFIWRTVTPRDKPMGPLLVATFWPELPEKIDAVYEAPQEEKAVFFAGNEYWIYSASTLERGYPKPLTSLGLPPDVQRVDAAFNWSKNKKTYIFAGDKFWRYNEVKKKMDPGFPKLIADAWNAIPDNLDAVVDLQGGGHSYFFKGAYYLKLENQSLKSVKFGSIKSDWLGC
Chain of Potassium voltage-gated channel subfamily KQT member 2 (O88943 whole entry): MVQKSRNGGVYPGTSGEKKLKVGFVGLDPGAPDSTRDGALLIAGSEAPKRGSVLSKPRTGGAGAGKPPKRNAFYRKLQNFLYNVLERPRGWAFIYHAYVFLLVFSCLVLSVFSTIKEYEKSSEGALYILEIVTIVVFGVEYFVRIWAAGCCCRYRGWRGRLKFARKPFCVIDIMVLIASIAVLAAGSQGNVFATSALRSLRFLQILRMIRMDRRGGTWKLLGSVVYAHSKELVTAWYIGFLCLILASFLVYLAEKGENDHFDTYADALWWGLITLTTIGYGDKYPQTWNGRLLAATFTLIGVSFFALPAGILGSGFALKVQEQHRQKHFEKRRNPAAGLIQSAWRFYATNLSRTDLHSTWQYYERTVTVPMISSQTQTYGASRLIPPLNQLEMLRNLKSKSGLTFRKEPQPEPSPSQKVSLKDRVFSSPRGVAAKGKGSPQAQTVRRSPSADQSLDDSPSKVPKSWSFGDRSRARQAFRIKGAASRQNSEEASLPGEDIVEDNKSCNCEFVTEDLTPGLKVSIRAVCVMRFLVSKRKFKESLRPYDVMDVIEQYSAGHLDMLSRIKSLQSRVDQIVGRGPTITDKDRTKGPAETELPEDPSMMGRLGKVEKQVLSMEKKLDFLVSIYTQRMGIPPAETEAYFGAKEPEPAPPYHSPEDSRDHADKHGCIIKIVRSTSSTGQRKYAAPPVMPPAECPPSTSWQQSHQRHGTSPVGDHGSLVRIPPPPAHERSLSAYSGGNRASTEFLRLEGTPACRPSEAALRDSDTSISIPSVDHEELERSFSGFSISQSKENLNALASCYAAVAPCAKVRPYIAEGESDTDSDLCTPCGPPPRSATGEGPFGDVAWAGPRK
Chain of 26S proteasome non-ATPase regulatory subunit 14 (O00487 whole entry): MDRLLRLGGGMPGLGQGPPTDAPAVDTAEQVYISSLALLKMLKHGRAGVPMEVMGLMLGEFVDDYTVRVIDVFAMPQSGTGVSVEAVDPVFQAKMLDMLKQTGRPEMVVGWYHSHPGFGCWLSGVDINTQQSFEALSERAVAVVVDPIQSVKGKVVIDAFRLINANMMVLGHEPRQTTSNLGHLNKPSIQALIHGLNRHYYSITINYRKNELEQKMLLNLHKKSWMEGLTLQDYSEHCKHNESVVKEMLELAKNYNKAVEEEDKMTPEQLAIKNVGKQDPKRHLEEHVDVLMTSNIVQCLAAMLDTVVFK
Chain of Cytochrome P450 3A4 (P08684 whole entry): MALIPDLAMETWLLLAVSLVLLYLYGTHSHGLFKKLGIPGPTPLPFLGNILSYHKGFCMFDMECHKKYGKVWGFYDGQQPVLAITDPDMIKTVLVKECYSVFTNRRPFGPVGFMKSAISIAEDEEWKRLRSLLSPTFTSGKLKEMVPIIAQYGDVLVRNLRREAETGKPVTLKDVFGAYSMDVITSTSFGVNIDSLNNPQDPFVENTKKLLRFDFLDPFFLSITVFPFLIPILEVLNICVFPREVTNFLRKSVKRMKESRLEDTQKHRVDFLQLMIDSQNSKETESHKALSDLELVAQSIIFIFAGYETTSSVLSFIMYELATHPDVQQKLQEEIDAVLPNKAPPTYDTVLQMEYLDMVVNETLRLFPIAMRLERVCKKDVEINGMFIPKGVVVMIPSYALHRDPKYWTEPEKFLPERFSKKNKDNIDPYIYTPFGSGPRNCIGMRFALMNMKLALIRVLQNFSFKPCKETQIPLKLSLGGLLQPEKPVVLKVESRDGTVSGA
Chain of Large T antigen (P03070 whole entry): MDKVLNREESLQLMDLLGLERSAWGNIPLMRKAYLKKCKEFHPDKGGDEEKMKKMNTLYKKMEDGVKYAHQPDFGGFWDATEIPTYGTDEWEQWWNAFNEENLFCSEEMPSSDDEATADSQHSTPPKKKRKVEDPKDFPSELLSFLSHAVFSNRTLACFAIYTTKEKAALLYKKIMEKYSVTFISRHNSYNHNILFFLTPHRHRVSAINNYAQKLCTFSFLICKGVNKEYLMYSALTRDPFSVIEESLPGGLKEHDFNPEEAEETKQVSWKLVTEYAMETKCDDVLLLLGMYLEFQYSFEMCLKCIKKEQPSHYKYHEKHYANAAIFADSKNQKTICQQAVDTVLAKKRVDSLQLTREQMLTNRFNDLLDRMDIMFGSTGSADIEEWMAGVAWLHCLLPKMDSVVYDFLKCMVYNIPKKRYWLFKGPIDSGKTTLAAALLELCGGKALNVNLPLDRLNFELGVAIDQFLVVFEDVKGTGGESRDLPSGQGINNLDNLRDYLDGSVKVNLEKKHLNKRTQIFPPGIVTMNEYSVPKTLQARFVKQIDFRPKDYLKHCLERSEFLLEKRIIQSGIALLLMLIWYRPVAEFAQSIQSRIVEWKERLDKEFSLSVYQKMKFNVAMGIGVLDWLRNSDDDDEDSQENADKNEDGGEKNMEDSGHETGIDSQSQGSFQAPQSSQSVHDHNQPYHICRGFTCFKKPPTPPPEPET
Chain of Phospholipase A2 (P04054 whole entry): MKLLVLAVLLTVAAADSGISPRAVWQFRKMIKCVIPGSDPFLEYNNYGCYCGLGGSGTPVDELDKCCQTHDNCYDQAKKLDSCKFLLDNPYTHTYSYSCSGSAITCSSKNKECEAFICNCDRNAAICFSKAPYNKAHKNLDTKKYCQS

Turning to `CCOc1cc(/C=C2\NC(=S)N(c3c(C)n(C)n(-c4ccccc4)c3=O)C2=O)ccc1O`, the IC50 was 5.37 µM (active) in assay [1], 9.31 µM (active) in assay [2], 27.9 µM (active) in [3] and 39.7 µM (active) in [4].
By AC50 is commonly meant the concentration giving half of the maximal activity seen. For `CCN1CCN(C(=S)c2ccc(Br)cc2)CC1`, the IC50 was 39.4 µM (inactive) in assay [5], 1.88 µM (active) in [7] and 0.942 µM (active) in assay [8]. Besides, in [6], the AC50 is 17.8 µM (inconclusive).
Turning to `C=C1C(=O)OC2CC(C)C3C=CC(=O)C3(C)C(O)C12` (stereo not given), the half-maximal activity concentration (AC50) in assay [9] is 5.16 µM (active); in [10], 2.68 µM (active); in assay [11], < 0.26 µM (active). Further, the IC50 in assay [12] is 2.74 µM (active).
For `O=C(Nc1cc(Cl)cc(Cl)c1)c1coc(=O)c(Br)c1`, the IC50 is > 20 µM (inactive) in assay [13] and 8.37 µM (active) in assay [14]. For the same compound, the EC50 in [15] is 15.1 µM (active).
Turning to `COc1cc(NC(=S)N2CCN(C)CC2)c(OC)cc1Cl`, the IC50 was > 80 µM (inactive) in assay [5], 7.71 µM (active) in assay [7] and 4 µM (active) in assay [8].
With `COc1ccc(CCN(C)C(=O)c2cc(-c3ccc(C)cc3)nc3ccccc23)cc1OC`, the IC50 in assay [16] is 0.59 µM (active).
Take `COc1cc(OC)cc(-c2nnc(Nc3nc4c(F)cccc4s3)o2)c1`: the IC50 was > 100 µM (inactive) in assay [2]; 30.1 µM (active) in [3]; 5.68 µM (active) in [17]; 62.8 µM (active) in [4]; > 80 µM (inactive) in assay [19]. For the same compound, the EC50 in assay [18] was > 38 µM (not active); in assay [20], > 150 µM (inconclusive).
As for `C/C(=N\Nc1nc(N2CCCCCC2)nc(N2CCCCCC2)n1)c1ccccc1`, the results for the EC50 in assay [21], in [22] and in assay [23] were 7.16 µM (active), 9.52 µM (active) and 5.5 µM (active), respectively. The IC50 in assay [16] is 1.62 µM (active).
Take `Cn1nc([N+](=O)[O-])nc1Oc1ccc(C(C)(C)C)cc1`: the IC50 is 9.25 µM (active) in assay [13] and 12.7 µM (active) in assay [14]. The EC50 in assay [24] is > 60 µM (inconclusive); in assay [15] it was > 53 µM (inactive); in assay [25], 0.201 µM (active).
Turning to `Cc1ccc(NC(=O)c2ccc3c(c2)OCCO3)nc1`, the AC50 was 2.56 µM (active) in [26] and 186 µM (active) in [27]. Also, the figures for the EC50 in [28] and in assay [29] were 8.65 µM (inconclusive) and 11.3 µM (active), respectively.
With `O=C(CSc1nnnn1-c1ccc2c(c1)OCCO2)Nc1nc2c(s1)CCCC2`, in assay [12], the IC50 was 1.6 µM (active).
